From publication PMC8904767, “Engineering an acetoacetyl-CoA reductase from Cupriavidus necator toward NADH preference under physiological conditions” (Scientific Reports, 2022)

B1: AAR^Cn1 (acetoacetyl-CoA reductase encoded by phaB1) (Cupriavidus necator H16) (protein)
chain: MTQRIAYVTGGMGGIGTAICQRLAKDGFRVVAGCGPNSPRREKWLEQQKALGFDFIASEGNVADWDSTKTAFDKVKSEVGEVDVLINNAGITRDVVFRKMTRADWDAVIDTNLTSLFNVTKQVIDGMADRGWGRIVNISSVNGQKGQFGQTNYSTAKAGLHGFTMALAQEVATKGVTVNTVSPGYIATDMVKAIRQDVLDKIVATIPVKRLGLPEEIASICAWLSSEESGFSTGADFSLNGGLHMG
notes: recombinant, expressed in E. coli BL21(DE3), purified by IMAC

What was measured:
Chimera 5 [1] = molecular target: T1, Chimera 5 (Cupriavidus necator, UniProt P14697, G33A/N37E/S38F/R40K/R41P/E46K, form not given); experiment: initial rates and reaction progress curves, global fit; type: biochemical; conditions: MOPS 50 mM, NaCl 5 mM, MgCl2 5 mM, pH 7.0, 30 °C
T1 construct: gene phaB; AAR^Cn1 with segment G33-E46 replaced by A33-K46 of AAR^CAp (residues 36 and 44 conserved); E. coli BL21(DE3), IMAC
T1 sequence (P14697 whole entry G33A/N37E/S38F/R40K/R41P/E46K, form open): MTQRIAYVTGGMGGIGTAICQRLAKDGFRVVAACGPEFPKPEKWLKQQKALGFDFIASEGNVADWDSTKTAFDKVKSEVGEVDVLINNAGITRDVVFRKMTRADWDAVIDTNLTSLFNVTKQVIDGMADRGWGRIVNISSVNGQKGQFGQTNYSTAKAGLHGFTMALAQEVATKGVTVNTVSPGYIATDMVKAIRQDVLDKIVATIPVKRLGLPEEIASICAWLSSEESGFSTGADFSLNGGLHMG
Description: initial rates and reaction progress curves, global fit on Chimera 5

[2] = molecular target: T2, Chimera 1 backbone (Chimera 2, Chimera 3, Chimera 4) (Cupriavidus necator, UniProt P14697, N37E/S38F/R40K/R41G, form not given); experiment: reaction progress curve analysis, absorbance […] nm; type: biochemical; conditions: AcAcCoA 2 mM, MOPS 50 mM, NaCl 5 mM, MgCl2 5 mM, pH 7.0, 30 °C, apparent kcat, read-out: Chimera2
T2 construct: gene phaB; AAR^Cn1 with N37-R41 replaced by E37-P41 of AAR^CAp (E37, F38, K40, P41 told in text); E. coli BL21(DE3), IMAC
T2 sequence (P14697 whole entry N37E/S38F/R40K/R41G, form open): as the sequence (P14697 whole entry G33A/N37E/S38F/R40K/R41P/E46K, form open) above, with A33G, P41G, K46E counted along it

[3] = molecular target: T3, Chimera 1 backbone (Chimera 2, Chimera 3, Chimera 4) (Cupriavidus necator, UniProt P14697, N37E/S38E/R40Q/R41P, form not given); experiment: as above; type: biochemical; conditions: AcAcCoA 2 mM, MOPS 50 mM, NaCl 5 mM, MgCl2 5 mM, pH 7.0, 30 °C, apparent kcat, read-out: Chimera4
T3 construct: gene phaB; AAR^Cn1 with N37-R41 replaced by E37-P41 of AAR^CAp (E37, F38, K40, P41 told in text); E. coli BL21(DE3), IMAC
T3 sequence (P14697 whole entry N37E/S38E/R40Q/R41P, form open): as the sequence (P14697 whole entry G33A/N37E/S38F/R40K/R41P/E46K, form open) above, with A33G, F38E, K40Q, K46E counted along it

[4] = molecular target: T4, Chimera 1 backbone (Chimera 2, Chimera 3, Chimera 4) (Cupriavidus necator, UniProt P14697, N37E/S38A/R40K/R41P, form not given); experiment: as above; type: biochemical; conditions: AcAcCoA 2 mM, MOPS 50 mM, NaCl 5 mM, MgCl2 5 mM, pH 7.0, 30 °C, apparent kcat, read-out: Chimera3
T4 construct: gene phaB; AAR^Cn1 with N37-R41 replaced by E37-P41 of AAR^CAp (E37, F38, K40, P41 told in text); E. coli BL21(DE3), IMAC
T4 sequence (P14697 whole entry N37E/S38A/R40K/R41P, form open): as the sequence (P14697 whole entry G33A/N37E/S38F/R40K/R41P/E46K, form open) above, with A33G, F38A, K46E counted along it

Chimera 5 [5] = molecular target: T1, Chimera 5; experiment: as above; type: biochemical; conditions: AcAcCoA 2 mM; MOPS 50 mM, NaCl 5 mM, MgCl2 5 mM, pH 7.0, 30 °C; apparent kcat; read-out: Chimera5
purified protein [6] = substrate: NC(=O)C1=CN([C@@H]2O[C@H](COP(=O)(O)OP(=O)(O)OC[C@H]3O[C@@H](n4cnc5c(N)ncnc54)[C@H](O)[C@@H]3O)[C@@H](O)[C@H]2O)C=CC1; experiment: purified protein; type: biochemical, Cupriavidus necator; conditions: AcAcCoA 2 mM, MOPS 50 mM, NaCl 5 mM, MgCl2 5 mM, pH 7.0, 30 °C, apparent kcat, varied: cofactor
purified protein [7] = substrate: NC(=O)C1=CN([C@@H]2O[C@H](COP(=O)(O)OP(=O)(O)OC[C@H]3O[C@@H](n4cnc5c(N)ncnc54)[C@H](OP(=O)(O)O)[C@@H]3O)[C@@H](O)[C@H]2O)C=CC1; experiment: purified protein; type: biochemical, Cupriavidus necator; conditions: AcAcCoA 2 mM, MOPS 50 mM, NaCl 5 mM, MgCl2 5 mM, pH 7.0, 30 °C, apparent kcat, varied: cofactor

Molecule	Km [2] [µM]	Km [3] [µM]	Km [4] [µM]	Km (Chimera 5 [5]) [µM]	also measured
CC(=O)CC(=O)SCCNC(=O)CCNC(=O)[C@H](O)C(C)(C)COP(=O)(O)OP(=O)(O)OC[C@H]1O[C@@H](n2cnc3c(N)ncnc32)[C@H](O)[C@@H]1OP(=O)(O)O [AcAcCoA]					Km (Chimera 5 [1]; NADH 1 mM, substrate inhibition model with KiS = KM): 50 µM; NADPH (Chimera 5 [1]; substrate inhibition, second site, NADPH 1 mM): 324 [195–465] µM
NC(=O)C1=CN([C@@H]2O[C@H](COP(=O)(O)OP(=O)(O)OC[C@H]3O[C@@H](n4cnc5c(N)ncnc54)[C@H](O)[C@@H]3O)[C@@H](O)[C@H]2O)C=CC1 [NADH]	140	618	886	43	
NC(=O)C1=CN([C@@H]2O[C@H](COP(=O)(O)OP(=O)(O)OC[C@H]3O[C@@H](n4cnc5c(N)ncnc54)[C@H](OP(=O)(O)O)[C@@H]3O)[C@@H](O)[C@H]2O)C=CC1 [NADPH]	1120	120	1750	2790	
B1					Km (purified protein [6]): 819 [688–975] µM; kcat (purified protein [6]): 10.3 s⁻¹; kcat/Km (purified protein [6]): 13000 M⁻¹ s⁻¹; Km (purified protein [7]): 44 [40–49] µM; kcat (purified protein [7]): 5.2 s⁻¹; kcat/Km (purified protein [7]): 118000 M⁻¹ s⁻¹
